Assay [1] relates to adult female mosquitoes (A. aegypti). In words: Mosquito toxicology experiments (hemolymph injection). Type of assay: in vivo, Aedes aegypti. The method, then:
The Aedes aegypti mosquito colony used in the present study is identical to that described previously. As before, only adult female mosquitoes 3–10 days post emergence were utilized for experiments.
Adult female mosquitoes for injection were anesthetized on ice and impaled through the metapleuron using a pulled-glass capillary attached to a nanoliter injector (Nanoject II, Drummond Scientific Company, Broomall, PA). Each mosquito received a single hemolymph injection of 69 nL of solution. The injection solution consisted of a potassium-rich phosphate buffered saline (K^+-PBS), 15% DMSO, 1% β-cyclodextrin, 0.1% Solutol, and a concentration of VU625 to deliver the doses indicated. In experiments where probenecid was used, water-soluble probenecid (Biotium, Hayward CA) was included in the injection solution at 50 mM, thereby providing a dose of 3.4 nmol per mosquito.
The K^+-PBS solution consisted of the following in mM: 92.2 NaCl, 47.5 KCl, 10 Na2HPO4, and 2 KH2PO4 (pH 7.5). A total of 10 mosquitoes were injected for a given treatment or dose, and then were placed into small cages within a rearing chamber (28°C, 80% relative humidity, 12∶12 light:dark) and allowed free access to a solution of 10% sucrose. […] For each treatment, 3–7 replicates of 10 mosquitoes each were performed.
Prism (GraphPad Software) was used to generate a dose-response curve for the toxicity of VU625; the doses (x-axis) were first log transformed and then the mortality data was normalized using Prism, where the smallest value and largest values in a data set equal ‘0%’ and ‘100%’, respectively. The data were then fitted using a ‘biphasic’ algorithm (<100 constraint) to calculate potencies (ED25 and ED75 values). To compare 1) the toxic effects among the vehicle, probenecid, VU625, and VU625 + probenecid treatments, and 2) the excretory capacity among the vehicle, probenecid, VU625, and VU625 + probenecid treatments, one-way ANOVAs were performed with Newman-Keuls posttests.

Assay [2] concerns mammalian Kir channels (Kir1.1, Kir2.1, Kir2.2, Kir2.3, Kir3.1/3.2, Kir4.1, Kir7.1(M125R), Kir6.2/SUR1). As to the kind of experiment: Tl+ flux assays against a panel of mammalian Kir channels. It counts as cell-based. The note with it: vs AeKir1 IC50 = 96.8 nM. As for the experimental part: The plates were transferred to a Hamamatsu Functional Drug Screening System 6000 (FDSS6000; Hamamatsu, Hamamatsu (or Bridgewater, NJ), Japan) where 20 µL/well of test compounds in assay buffer (as prepared below) were added and allowed to incubate with the cells for 20 min. After the incubation period, a baseline recording was collected at 1 Hz for 10 s (excitation 470±20 nm, emission 540±30 nm) followed by a Tl^+ stimulus buffer addition (10 µL/well) and data collection for an additional 4 min. The Tl^+ stimulus buffer contains in (mM) 125 NaHCO3, 1.8 CaSO4, 1 MgSO4, 5 glucose, 12 Tl2SO4, 10 HEPES, pH 7.4. For Tl^+ flux assays on the mammalian channels Kir2.x, Kir4.1 and Kir6.2/SUR1 expressing cells, the Tl^+ stimulus buffer contained 1.8 mM Tl2SO4. Also, Tl^+ flux assays on Kir3.1/3.2/mGlu8 expressing cell, required addition of an EC80 concentration of glutamate (Sigma-Aldrich, St. Louis, MO) with the Tl^+ stimulus buffer.
The test compounds were transferred to daughter polypropylene 384-well plates (Greiner Bio-One, Monroe, NC) using an Echo555 liquid handler (Labcyte, Sunnyvale, CA), and then diluted into assay buffer to generate a 2X stock in 0.6% DMSO (0.3% final). For Tl^+ flux assays on Kir6.2/SUR1 expressing cells, test compounds were diluted in assay buffer containing diazoxide (250 µM final) to induce channel activation. […]

The target of assay [3] is 5-HT2B receptor (Homo sapiens, UniProt P41595). In words: Radioligand displacement assay, 5-HT2B receptor. The note with it: 10 µM VU625. Type of assay: binding, mammalian. (In a radioligand displacement assay an active substance lowers the binding of a labelled ligand.)
Chain of 5-HT2B receptor (P41595 whole entry): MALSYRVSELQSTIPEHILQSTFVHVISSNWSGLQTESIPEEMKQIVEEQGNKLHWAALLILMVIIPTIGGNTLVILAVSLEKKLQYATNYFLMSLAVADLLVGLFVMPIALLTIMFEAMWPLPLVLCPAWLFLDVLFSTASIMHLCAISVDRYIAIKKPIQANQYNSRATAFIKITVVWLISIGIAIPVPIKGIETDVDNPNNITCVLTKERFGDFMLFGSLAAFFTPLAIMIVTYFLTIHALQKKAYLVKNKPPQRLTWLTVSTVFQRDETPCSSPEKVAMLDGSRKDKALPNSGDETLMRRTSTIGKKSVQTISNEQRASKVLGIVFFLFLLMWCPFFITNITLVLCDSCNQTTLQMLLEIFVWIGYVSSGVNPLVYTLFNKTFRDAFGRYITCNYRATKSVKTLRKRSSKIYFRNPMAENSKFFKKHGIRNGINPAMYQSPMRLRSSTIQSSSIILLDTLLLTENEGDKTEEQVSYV
[4] abbreviates: co-injected with probenecid 3.4 nmol per mosquito, mortality at 24 h post-injection, biphasic fit.

Consider one compound from paper PMC4222822, “Discovery and Characterization of a Potent and Selective Inhibitor of Aedes aegypti Inward Rectifier Potassium Channels” (PLoS ONE, 2014).

Molecules are shown by their SMILES.

On to `CCC(=O)N1c2ccc(S(=O)(=O)Nc3cccc(OC)c3)cc2CC1C` (stereo not shown) [VU625, N-(3-methoxyphenyl)-2-methyl-1-propionylindoline-5-sulfonamide], for which, in assay [1] (690 pmol per mosquito, hemolymph injection, alone, 24 h), the “effect on mosquito behavior or survival” value is “no significant effects on mosquito behavior or survival within 24 h”. In assay [1] (VU625 690 pmol + probenecid 3.4 nmol per mosquito, 24 h, vs VU625 or probenecid alone), the “toxicity on co-injection with probenecid” value is recorded as “significantly increases the toxicity of VU625 within 24 h”. In assay [1] (setting [4]), the “ED25 (mortality)” value was found to be 9.96 pmol and the “ED75 (mortality)” value was found to be 502 pmol. Moreover, the “efficacy of VU625 with PBO” value in assay [1] (preliminary experiments with PBO) is recorded as “did not improve the efficacy”. The “selectivity for the AeKir1 channel over 8 mammalian Kir channels” value in assay [2] is “greater than 80 fold”. In assay [3], the radioligand displacement stood at 69%.
